Values after ≈ are worked out from the molar mass of the structure shown.
Assays:
[1] = Rapamycin solubility from light scattering intensity of diluted reconstituted nanoparticle suspension; assay type: physicochemical; conditions: saline or isotonic; in 0.9% saline solution; from light scattering intensity vs rapamycin concentration of reconstituted albumin-rapamycin nanoparticle suspension; read-out: solubility point of rapamycin
Protocol: FIG. 5 depicts light scattering intensity (kcps) as a function of rapamycin concentration from a reconstituted suspension of the pharmaceutical composition comprising nanoparticles comprising rapamycin and albumin. When the suspensions were diluted to concentrations below the rapamycin solubility, the nanoparticles completely disintegrated and dissolved (see left 7-8 data points on graph). However, when the suspensions were diluted to concentrations above the rapamycin solubility, the nanoparticles only partially disintegrated and dissolved, and light scattering was observed (see right 4-5 data points on graph).
The albumin-based rapamycin nanoparticle compositions described herein in some embodiments have a particular in vitro release kinetic behavior. […] In this assay, the particle size and intensity of light scattered by the particles are measured by DLS over time following a reduction in particle concentration. In some embodiments, the release kinetics are determined by diluting the pharmaceutical composition in a 0.9% saline solution. In some embodiments, the release kinetics are determined by diluting the pharmaceutical composition in a 5% human albumin solution.
In some embodiments, the in vitro release is determined using the dynamic light scattering method. […] In some embodiments, the intensity of light scattered is measured at a scattering angle of 173°.

[2] = Solubility of rapamycin in reconstituted suspension by light scattering; assay type: physicochemical; conditions: saline or isotonic; reconstituted suspension of the pharmaceutical composition in 0.9% saline; mean±95% CI
Protocol: The change in intensity of light scattering in diluted samples of the reconstituted suspension of the pharmaceutical composition was used as a measure to determine the in vitro dissolution or disintegration of the nanoparticles, which implicates the release of rapamycin from the nanoparticles of the pharmaceutical composition. The percent of rapamycin released at any given time was determined using the light scattering intensity at zero time and at time t. The intensity of light scattering, measured by the Malvern Zetasizer Nano, is relative to the number of nanoparticles present in the pharmaceutical composition. […] If the release of rapamycin from the nanoparticles is controlled by the solubility limit and the reconstituted suspension is diluted to a concentration within the solubility range, then the nanoparticles should rapidly dissolve, causing the rapamycin to be readily released from the nanoparticles of the pharmaceutical composition, and the light scattering intensity will approach zero.
When the suspensions were diluted to concentrations above the rapamycin solubility, the nanoparticles only partially disintegrated and dissolved, and light scattering was observed. […] The solubility of rapamycin was determined as the concentration at which the intensity of the scattered light begins to increase linearly.

solubility [1]: 16.1 ± 1.8 µg/mL (≈ 17.6 µM)
solubility [2]: 16.1 ± 1.8 µg/mL (≈ 17.6 µM)
SMILES: CO[C@H]1C[C@@H]2CC[C@@H](C)[C@@](O)(O2)C(=O)C(=O)N2CCCC[C@H]2C(=O)O[C@H]([C@H](C)C[C@@H]2CC[C@@H](O)[C@H](OC)C2)CC(=O)[C@H](C)/C=C(\C)[C@@H](O)[C@@H](OC)C(=O)[C@H](C)C[C@H](C)/C=C/C=C/C=C/1C [rapamycin]

— patent US11497737B2, “Pharmaceutical compositions of albumin and rapamycin” (Abraxis BioScience, LLC, priority 2019, dated 2022)
